Measured values from patent US20250188079A1, “INHIBITING CYCLIC AMP-RESPONSIVE ELEMENT-BINDING PROTEIN (CREB)” (Forma Therapeutics, Inc., priority 2019, published 2025).

Molecular target: CBP (Homo sapiens (Human), UniProt Q92793)
Test: HTRF biochemical assay for CBP activity (TR-FRET, bromodomain)
Assay type: binding
Conditions: geometric mean, 10-point 3-fold dilution 33 μM to 1.7 nM, read-out: BROMO IC50 TRF TB CBP (μM gmean)
Procedure, shortened: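 IC50 derives from a 4-parameter logistic fit of % inhibition, calculated from the 520/490 nm TR-FRET ratio against DMSO and no-enzyme controls. Final compound levels spanned 33 μM to 1.7 nM (10 points, 3-fold), with CBP and peptide ligand in Hepes pH 7.5/GSH/BGG/BSA/Triton buffer, incubated at room temperature for varying times.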

CBP, sequence (Q92793 1085-1192): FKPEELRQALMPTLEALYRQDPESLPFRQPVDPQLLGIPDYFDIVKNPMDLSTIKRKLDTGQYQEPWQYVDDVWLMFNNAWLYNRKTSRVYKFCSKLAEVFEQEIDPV

| Compound | IC50 [µM] |
| --- | --- |
| COC(=O)N1CCc2ccc3c(nc(-c4cccc([C@](C)(O)C(=O)O)c4)n3[C@@H](C)Cc3ccccc3)c2C1 [Compound 184] | 0.01 to 0.1 |
| COC(=O)N1CCc2ccc3c(nc(C4CCCCC4)n3[C@@H](CO)Cc3cccc(C(=O)O)c3)c2C1 [Compound 152] | 0.001 to 0.01 |
| COC(=O)N1CCc2ccc3c(nc(N4CCN(C(=O)O)CC4)n3[C@H](C)Cc3ccccc3)c2C1 [Compound 54] | 0.001 to 0.01 |
| COC(=O)N1CCc2ccc3c(nc([C@H]4CC[C@@H](OC)CC4)n3C[C@H](C(=O)O)c3ccccc3)c2C1 [Compound 250] | 0.01 to 0.1 |
| COC(=O)N1CCc2ccc3c(nc([C@H]4CC[C@H](C(=O)O)CC4)n3[C@@H](C)Cc3ccc(C)c(F)c3)c2C1 (single isomer, unassigned) [Compound 2] | 0.001 to 0.01 |
| COC(=O)N1CCc2ccc3c(nc(C4CCCCC4)n3[C@H](C)C[C@H]3CCCC[C@@H]3C(=O)O)c2C1 [Compound 112] | 0.001 to 0.01 |
| COC(=O)N1CCc2ccc3c(nc([C@H]4CC[C@H](C(=O)O)CC4)n3[C@H](C)C[C@H]3CCCOC3)c2C1 [Compound 275] | 0.01 to 0.1 |
| COC(=O)N1CCc2ccc3c(nc(-c4ccc(CC(=O)O)cc4)n3[C@@H](C)Cn3cc(Cl)cn3)c2C1 [Compound 122] | 0.001 to 0.01 |
| COC(=O)N1CCc2ccc3c(nc(-c4ccc(C(=O)O)c(F)c4)n3[C@@H](C)Cc3ccccc3)c2C1 [Compound 133] | 0.001 to 0.01 |
| COC(=O)N1CCc2ccc3c(nc(C4CCCCC4)n3C[C@@H](C(=O)O)c3ccccc3)c2C1 [Compound 197] | 0.01 to 0.1 |
| COC(=O)N1CCc2ccc3c(nc(C4CCCCC4)n3C[C@H](C(=O)O)c3ccc(F)c(OC)c3)c2C1 [Compound 9] | 0.001 to 0.01 |
| COC(=O)N1CCc2c([C@H]3CCOC3)cc3c(nc([C@H]4CC[C@H](C(=O)O)CC4)n3CCc3ccccc3)c2C1 [Compound 136] | 0.001 to 0.01 |
